Test results from publication PMC4790851, “Iminosugars Inhibit Dengue Virus Production via Inhibition of ER Alpha-Glucosidases—Not Glycolipid Processing Enzymes” (PLoS Neglected Tropical Diseases, 2016).

Key:
ER α-glucosidase I = target: T1, ER α-glucosidase I (Homo sapiens, UniProt Q13724); experiment: Free oligosaccharide analysis in MDMΦs: Glc3Man5GlcNAc1; assay type: cell-based; conditions: 48 h; for accumulation of Glc3Man5GlcNAc1: MDMΦs; for FOS representative of ER α-glucosidase I inhibition (Glc3Man5GlcNAc1): MNTD of iminosugar (NB-DNJ 100 μM), uninfected MDMΦs
T1 construct: endogenous in cells; host or cells: primary human monocyte-derived macrophages (MDMΦ)
T1 sequence (Q13724 1-837): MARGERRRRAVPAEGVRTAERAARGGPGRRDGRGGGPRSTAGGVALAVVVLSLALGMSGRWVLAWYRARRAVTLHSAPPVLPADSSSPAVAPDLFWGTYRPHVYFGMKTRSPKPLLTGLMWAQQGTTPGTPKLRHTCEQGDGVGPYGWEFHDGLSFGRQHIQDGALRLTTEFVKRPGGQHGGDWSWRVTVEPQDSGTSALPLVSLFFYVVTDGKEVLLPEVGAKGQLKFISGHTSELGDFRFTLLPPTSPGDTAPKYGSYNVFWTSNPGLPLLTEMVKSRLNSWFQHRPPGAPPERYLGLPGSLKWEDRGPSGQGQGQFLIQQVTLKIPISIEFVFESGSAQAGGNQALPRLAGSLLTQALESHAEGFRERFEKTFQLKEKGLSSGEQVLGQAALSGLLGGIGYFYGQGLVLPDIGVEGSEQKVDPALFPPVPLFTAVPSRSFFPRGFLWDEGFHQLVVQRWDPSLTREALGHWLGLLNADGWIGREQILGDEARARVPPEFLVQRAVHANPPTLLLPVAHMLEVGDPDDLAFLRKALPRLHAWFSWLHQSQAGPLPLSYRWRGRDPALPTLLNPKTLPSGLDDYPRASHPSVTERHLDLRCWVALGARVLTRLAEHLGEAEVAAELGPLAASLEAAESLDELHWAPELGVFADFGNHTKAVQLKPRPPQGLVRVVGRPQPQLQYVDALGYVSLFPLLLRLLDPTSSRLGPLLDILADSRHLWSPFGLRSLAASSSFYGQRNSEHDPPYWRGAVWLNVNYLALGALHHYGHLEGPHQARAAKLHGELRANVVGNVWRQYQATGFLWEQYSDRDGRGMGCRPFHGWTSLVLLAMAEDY
Description: MDMΦ were infected with DENV2 16681 diluted to a multiplicity of infection (MOI) of 1 in X-VIVO10 without supplements for 90 minutes (20°C, with rocking). Upon removal of virus, fresh MDMΦ growth medium without IL-4 but containing serial dilutions of drug or control was placed on the cells, and cells were incubated for 48 hours (37°C, 5% CO2). For collection of infectious virus, supernatant was harvested and centrifuged for 5 minutes (room temperature, 400 x g) to pellet any cells/debris, and supernatants were aliquoted and stored at -80°C until analysis by plaque assay. In the case of FOS and GSL assays where MDMΦ were uninfected, treatments were essentially as above except that no virus was added and cells were washed three times with sterile PBS after 24 or 48 hours as per sample time point. On the third wash, cells were removed from tissue culture plastic by mechanical disruption (scraping) and transferred to microcentrifuge tubes for centrifugation (room temperature, 4000 x g, 5 minutes). Cells were lysed by three cycles of freeze-thawing (alternating room temperature and –80°C) in deionised H2O and stored at –80°C for subsequent protein, FOS, or GSL assay.
MDMΦ FOS were detected as previously described by Alonzi et al.. Cells were cultured in 6-well plates as described above, and protein lysates were prepared according to the freeze/thaw protocol. Following cell lysis, samples were subjected to mixed-bed ion exchange and then lyophilised. FOS were labelled with 2-aminobenzoic acid (2-AA) and purified using a DPA-6S column (Sigma). Unconjugated 2-AA was removed by phase splitting with ethyl acetate, and samples were lyophilised and resuspended in water and then purified using a con-A column. Glycans were separated by normal phase-high performance liquid chromatography (NP-HPLC), and peak area was used to assess molar quantity in comparison to standards of known identity and quantity. FOS generation was normalised to protein concentration based on a modified Bradford assay as previously described. Briefly, cell lysates were added in a 1:1 volumetric ratio to 1x Bradford Quick Start Reagent (Bio-Rad) and incubated at 20°C for 5 minutes. Absorbance values (Axxx) at 595 nm and 420 nm were measured, and the ratio of A595 to A420 was used to determine protein concentration in comparison to a serially diluted standard of bovine serum albumin.

[1] = target: Human lysosome α-glucosidase (Homo sapiens, UniProt P10253); experiment: In vitro enzyme inhibition; assay type: biochemical; conditions: concentration required to inhibit the enzyme to 50% activity; read-out: IC50
Rat intestinal sucrase = target: T2, Rat intestinal sucrase (Rattus norvegicus, UniProt P23739); experiment: In vitro enzyme inhibition, glucose release from disaccharide; assay type: biochemical; conditions: concentration required to inhibit the enzyme to 50% activity; read-out: IC50
T2 construct: from tissue; host or cells: rat intestine
T2 sequence (P23739 whole entry): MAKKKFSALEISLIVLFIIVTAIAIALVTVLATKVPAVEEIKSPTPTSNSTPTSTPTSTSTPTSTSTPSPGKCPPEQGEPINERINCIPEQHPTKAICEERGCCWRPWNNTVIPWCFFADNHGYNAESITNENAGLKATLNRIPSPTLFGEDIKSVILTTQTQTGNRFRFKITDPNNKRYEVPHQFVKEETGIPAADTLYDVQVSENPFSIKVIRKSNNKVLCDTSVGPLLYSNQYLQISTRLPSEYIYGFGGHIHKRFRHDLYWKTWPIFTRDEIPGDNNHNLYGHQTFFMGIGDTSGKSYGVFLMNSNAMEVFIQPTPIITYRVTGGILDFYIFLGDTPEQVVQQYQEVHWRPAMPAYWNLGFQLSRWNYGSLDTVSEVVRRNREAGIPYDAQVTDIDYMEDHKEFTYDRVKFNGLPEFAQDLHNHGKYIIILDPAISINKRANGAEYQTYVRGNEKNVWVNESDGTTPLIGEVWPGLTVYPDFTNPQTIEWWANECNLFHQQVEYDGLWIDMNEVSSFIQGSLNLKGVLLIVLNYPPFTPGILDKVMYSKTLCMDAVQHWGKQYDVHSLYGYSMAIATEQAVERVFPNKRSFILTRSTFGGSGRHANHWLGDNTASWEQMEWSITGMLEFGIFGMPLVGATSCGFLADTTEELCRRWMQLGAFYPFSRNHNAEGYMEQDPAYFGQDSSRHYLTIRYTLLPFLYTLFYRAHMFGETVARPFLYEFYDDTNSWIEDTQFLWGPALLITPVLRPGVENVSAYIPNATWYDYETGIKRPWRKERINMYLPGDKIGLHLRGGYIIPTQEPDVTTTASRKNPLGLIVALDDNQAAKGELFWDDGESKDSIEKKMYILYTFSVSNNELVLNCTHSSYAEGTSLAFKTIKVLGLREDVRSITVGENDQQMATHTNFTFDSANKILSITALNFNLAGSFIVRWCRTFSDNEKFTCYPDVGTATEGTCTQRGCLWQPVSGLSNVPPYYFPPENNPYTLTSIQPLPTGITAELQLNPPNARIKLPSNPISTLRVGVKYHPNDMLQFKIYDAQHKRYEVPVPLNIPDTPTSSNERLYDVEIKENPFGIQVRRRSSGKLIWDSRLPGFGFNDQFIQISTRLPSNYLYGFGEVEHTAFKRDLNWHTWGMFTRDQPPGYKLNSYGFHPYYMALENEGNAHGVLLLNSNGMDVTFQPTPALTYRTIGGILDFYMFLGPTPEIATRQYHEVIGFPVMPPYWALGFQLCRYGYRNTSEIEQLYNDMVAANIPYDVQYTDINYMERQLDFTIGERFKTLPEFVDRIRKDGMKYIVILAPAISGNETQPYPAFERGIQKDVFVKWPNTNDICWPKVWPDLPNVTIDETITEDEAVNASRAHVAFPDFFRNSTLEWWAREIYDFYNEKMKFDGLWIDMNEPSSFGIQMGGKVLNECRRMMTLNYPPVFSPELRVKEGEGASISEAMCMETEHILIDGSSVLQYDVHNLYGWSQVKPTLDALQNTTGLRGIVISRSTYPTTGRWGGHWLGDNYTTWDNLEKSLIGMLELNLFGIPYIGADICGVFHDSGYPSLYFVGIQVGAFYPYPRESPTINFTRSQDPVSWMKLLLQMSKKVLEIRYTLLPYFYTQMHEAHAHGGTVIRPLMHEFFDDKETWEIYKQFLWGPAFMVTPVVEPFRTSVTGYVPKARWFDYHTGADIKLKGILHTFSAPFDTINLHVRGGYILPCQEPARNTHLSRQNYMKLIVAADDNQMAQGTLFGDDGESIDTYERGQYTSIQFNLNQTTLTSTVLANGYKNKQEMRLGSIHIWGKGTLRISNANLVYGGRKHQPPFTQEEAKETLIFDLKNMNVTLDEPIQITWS

Compound | accumulation of Glc3Man5GlcNAc1 (ER α-glucosidase I; 1 μM, all donors) | accumulation of Glc3Man5GlcNAc1 (ER α-glucosidase I; 31.6 and 100 μM) | IC50 [1] [µM] | IC50 (Rat intestinal sucrase) [µM] | FOS representative of ER α-glucosidase I inhibition (Glc3Man5GlcNAc1) (ER α-glucosidase I)
CCCC(=O)O[C@H]1CN2CC[C@H](O)[C@@H]2[C@@H](O)[C@@H]1O [Celgosivir, 6-O-butanoyl-castanospermine] | not Glc3Man5GlcNAc1 | increasing accumulation of Glc3Man5GlcNAc1 | 93.2 | 2.7 | –
CCCCN1C[C@H](O)[C@@H](O)[C@@H](O)[C@H]1CO [NB-DGJ] | – | – | > 1000 | > 1000 | fail to produce detectable ER α-glucosidase associated FOS
CCCCCCCCCN1C[C@H](O)[C@@H](O)[C@@H](O)[C@H]1CO [NN-DGJ] | – | – | > 1000 | > 1000 | fail to produce detectable ER α-glucosidase associated FOS
CCCCN1C[C@H](O)[C@@H](O)[C@H](O)[C@H]1CO [NB-DNJ, N-butyl-DNJ] | not Glc3Man5GlcNAc1 | – | 0.27 | 0.44 | accumulation of peaks representative of inhibition of both α-glucosidases
